# Measured values published in patent US8163768B2, “1,4-dihydropyridine-fused heterocycles, process for preparing the same, use and compositions containing them” (Aventis Pharma S.A.., priority 2005, dated 2012).
# How the values were obtained:
# Aurora1 (Aurora-B) = target: T1, Aurora1 (Aurora-B) (Homo sapiens, UniProt Q96GD4); test: Aurora 1 (Aurora B) kinase radioactivity scintillation assay using nickel chelate Flash plates; format: biochemical; conditions: 10 nM Aurora-B (co expressed with C3 fragment of INCEP), 500 nM NuMA substrate, 1 μM ATP with [33P] ATP, 5 mM MgCl2, 30 minutes, 37° C.
# T1 construct: Aurora-B: the full length protein (His tagged in N-terminal) has been co expressed in SF9 cells; poly-histidine (N); made in house; host or cells: SF9 cells
# T1 sequence (Q96GD4 whole entry, species assumed, the tested form may be a part): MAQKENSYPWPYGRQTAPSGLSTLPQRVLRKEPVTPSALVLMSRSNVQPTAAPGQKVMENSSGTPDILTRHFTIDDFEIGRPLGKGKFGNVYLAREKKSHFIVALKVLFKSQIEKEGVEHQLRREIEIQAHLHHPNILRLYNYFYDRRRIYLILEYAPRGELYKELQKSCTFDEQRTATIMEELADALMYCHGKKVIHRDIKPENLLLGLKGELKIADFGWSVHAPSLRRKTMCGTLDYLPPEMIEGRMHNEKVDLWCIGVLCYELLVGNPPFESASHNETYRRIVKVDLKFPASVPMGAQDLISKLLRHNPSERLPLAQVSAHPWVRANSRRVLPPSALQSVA
# T1 sequence (Q9NQS7 821-918 partner limits assumed, species assumed): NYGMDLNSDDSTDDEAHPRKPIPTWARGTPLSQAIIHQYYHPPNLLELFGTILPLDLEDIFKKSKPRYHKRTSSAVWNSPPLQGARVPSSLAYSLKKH
# Procedure: (§1) Aurora 1 and 2 (Respectively. Aurora B and A)
# (§2) The inhibitory effect of compounds with respect to the Aurora 1 and 2 kinases is determined with a radioactivity scintillation assay using nickel chelate.
# (§3) The kinase activity of Aurora is measured by the phosphorylation of NuMA-histidine substrate in the presence of radiolabelled ATP ([^33P] ATP) using 96 well Flash plates where the nickel-chelate is linked to the surface of the microplate. The amount of ^33P incorporated to the substrate NuMA is proportional to the aurora activity.
# (§4) The Flash plates used are nickel-chelate 96 well plates (Perkin Elmer, model SMP107).
# (§5) The products to be evaluated are incubated in a 100 μl reaction volume per well in the presence of 10 nM of Aurora-B or Aurora-A, 500 nM of NuMA substrate in the following buffer: 50 mM of NaCl, 5 mM MgCl2, (Aurora-B) or 10 mM MgCl2 (Aurora-A) and 1 mM of DTT at 37° C.
# (§6) 80 μL of enzyme/substrate incubation buffer is distributed in each well, followed by 10 μL of solution of compound to be measured with various concentrations. The reaction is started by adding 1 μM of ATP (final concentration) containing 0.2 μCi of [^33P] ATP (10 μL). After 30 minutes of incubation the reaction is stopped by removal of the reaction mixture and each well is washed twice with 300 μl of buffer Tris/HCl. The radioactivity is measured in each well using a Packard Top count scintillation counter instrument.
# (§7) The enzymatic activity is expressed as counts per minute obtained in 30 minutes after subtraction of the background noise (reaction medium without enzyme). The measurement is expressed as percentage of inhibition of Aurora activity versus the control. To generate IC50 values, compounds of the invention are tested at different concentration and the percentage of inhibition are plotted as function of compound concentration, IC50s are calculated using the Xlfit 4 curve fitting software.
# Aurora2 (Aurora-A) = target: T2, Aurora2 (Aurora-A) (Homo sapiens, UniProt O14965); test: Aurora 2 (Aurora A) kinase radioactivity scintillation assay using nickel chelate Flash plates; format: biochemical; conditions: 10 nM Aurora-A, 500 nM NuMA substrate, 1 μM ATP with [33P] ATP, 10 mM MgCl2, 30 minutes, 37° C.
# T2 construct: Aurora-A: the full length recombinant protein including an N-terminal poly-histidine tail has been expressed in E. coli; poly-histidine (N); made in house; host or cells: E. coli
# T2 sequence (O14965 1-403): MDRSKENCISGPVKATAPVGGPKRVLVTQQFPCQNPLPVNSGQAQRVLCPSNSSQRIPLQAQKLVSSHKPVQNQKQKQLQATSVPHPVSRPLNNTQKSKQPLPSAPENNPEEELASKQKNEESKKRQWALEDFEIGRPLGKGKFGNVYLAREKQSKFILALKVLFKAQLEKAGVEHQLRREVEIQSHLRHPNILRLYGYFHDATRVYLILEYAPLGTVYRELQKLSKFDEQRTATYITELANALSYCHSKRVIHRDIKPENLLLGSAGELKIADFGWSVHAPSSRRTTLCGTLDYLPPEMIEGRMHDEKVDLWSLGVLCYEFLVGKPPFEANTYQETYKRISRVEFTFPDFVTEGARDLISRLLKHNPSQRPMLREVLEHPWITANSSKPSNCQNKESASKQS
# Procedure: as §1, §2, §3, §4, §5, §6, §7
SMILES,IC50 (Aurora1 (Aurora-B)) [nM],IC50 (Aurora2 (Aurora-A)) [nM]
"O=C1CCCC2=C1[C@H](c1ccc(Sc3nc4ccccc4[nH]3)o1)c1c[nH]nc1N2 (single isomer, unassigned) [120a (+), 4-[5-(1H-Benzimidazol-2-ylsulfanyl)-furan-2-yl]-1,4,6,7,8,9-hexahydro-pyrazolo[3,4-b]quinolin-5-one]",4,–
"O=C1CCCC2=C1[C@H](c1ccc(Sc3nc4ccccc4[nH]3)o1)c1c[nH]nc1N2 (single isomer, unassigned) [120b (−), 4-[5-(1H-Benzimidazol-2-ylsulfanyl)-furan-2-yl]-1,4,6,7,8,9-hexahydro-pyrazolo[3,4-b]quinolin-5-one]",75,–
"O=C1CCCC2=C1C(c1ccc(Sc3nc4ccccc4[nH]3)o1)c1cn[nH]c1N2 (stereo not shown) [Example 3, 4-[5-(1H-Benzimidazol-2-ylsulfanyl)-furan-2-yl]-1,4,6,7,8,9-hexahydro-pyrazolo[3,4-b]quinolin-5-one]",8,–
"CC1(C)CC(=O)C2=C(C1)Nc1n[nH]cc1C2c1ccc(Sc2nc3ccccc3[nH]2)o1 (stereo not shown) [Example 4, 4-[5-(1H-Benzimidazol-2-ylsulfanyl)-furan-2-yl]-7,7-dimethyl-2,4,6,7,8,9-hexahydro-pyrazolo[3,4-b]quinolin-5-one]",4,15
"O=C1CNCC2=C1C(c1ccc(Sc3nc4ccccc4[nH]3)o1)c1c[nH]nc1N2 (stereo not shown) [Example 20, 4-[5-(1H-Benzimidazol-2-ylsulfanyl)-furan-2-yl]-2,4,6,7,8,9-hexahydro-pyrazolo[3,4-b]-1,7-naphthyridin-5-one; compound with trifluoro-acetic acid]",83,–
"CC1CC(=O)C2=C(C1)Nc1n[nH]cc1C2c1ccc(Sc2nc3ccccc3[nH]2)o1 (stereo not shown) [Example 28, 4-[5-(1H-Benzimidazol-2-ylsulfanyl)-furan-2-yl]-7-methyl-2,4,6,7,8,9-hexahydro-pyrazolo[3,4-b]quinolin-5-one; compound with trifluoro-acetic acid]",5,17
"O=C1CC(c2ccccc2)CC2=C1C(c1ccc(Sc3nc4ccccc4[nH]3)o1)c1c[nH]nc1N2 (stereo not shown) [Example 29, 4-[5-(1H-Benzimidazol-2-ylsulfanyl)-furan-2-yl]-7-phenyl-2,4,6,7,8,9-hexahydro-pyrazolo[3,4-b]quinolin-5-one; compound with trifluoro-acetic acid]",36,100
"CC1(C)CCC2=C(C1=O)C(c1ccc(Sc3nc4ccccc4[nH]3)o1)c1c[nH]nc1N2 (stereo not shown) [Example 30, 4-[5-(1H-Benzimidazol-2-ylsulfanyl)-furan-2-yl]-6,6-dimethyl-2,4,6,7,8,9-hexahydro-pyrazolo[3,4-b]quinolin-5-one; compound with trifluoro-acetic acid]",5,20
"CC(C)C1CC(=O)C2=C(C1)Nc1n[nH]cc1C2c1ccc(Sc2nc3ccccc3[nH]2)o1 (stereo not shown) [Example 31, 4-[5-(1H-Benzimidazol-2-ylsulfanyl)-furan-2-yl]-7-isopropyl-2,4,6,7,8,9-hexahydro-pyrazolo[3,4-b]quinolin-5-one; compound with trifluoro-acetic acid]",4,14
"COc1ccc(C2CC(=O)C3=C(C2)Nc2n[nH]cc2C3c2ccc(Sc3nc4ccccc4[nH]3)o2)cc1 (stereo not shown) [Example 32, 4-[5-(1H-Benzimidazol-2-ylsulfanyl)-furan-2-yl]-7-(4-methoxy-phenyl)-2,4,6,7,8,9-hexahydro-pyrazolo[3,4-b]quinolin-5-one; compound with trifluoro-acetic acid]",50,125
"O=C1CC(c2ccc(Cl)cc2Cl)CC2=C1C(c1ccc(Sc3nc4ccccc4[nH]3)o1)c1c[nH]nc1N2 (stereo not shown) [Example 33, 4-[5-(1H-Benzimidazol-2-ylsulfanyl)-furan-2-yl]-7-(2,4-dichloro-phenyl)-2,4,6,7,8,9-hexahydro-pyrazolo[3,4-b]quinolin-5-one; compound with trifluoro-acetic acid]",32,179
O=C1CCCC2=C1C(c1ccc(Sc3ccccn3)o1)c1c[nH]nc1N2 (stereo not shown) [Example 40],3400,–
"Cn1c(Sc2ccc(C3C4=C(CNCC4=O)Nc4n[nH]cc43)o2)nc2ccccc21 (stereo not shown) [Example 83, 4-[5-(1-Methyl-1H-benzimidazol-2-ylsulfanyl)-furan-2-yl]-2,4,6,7,8,9-hexahydro-pyrazolo[3,4-b]-1,7-naphthyridin-5-one; compound with trifluoro-acetic acid]",5020,–
"CCOC(=O)c1[nH]cc2c1NC1=C(C(=O)CNC1)C2c1ccc(Sc2nc3ccccc3[nH]2)o1 (stereo not shown) [Example 104, 9-[5-(1H-Benzimidazol-2-ylsulfanyl)-furan-2-yl]-8-oxo-4,5,6,7,8,9-hexahydro-2H-pyrrolo[3,4-b]-1,7-naphthyridine-3-carboxylic acid ethyl ester; compound with trifluoro-acetic acid]",7,–
"CCOC(=O)c1[nH]cc2c1NC1=C(C(=O)CC(C)(C)C1)C2c1ccc(Sc2nc3ccccc3[nH]2)o1 (stereo not shown) [Example 106, 9-[5-(1H-Benzimidazol-2-ylsulfanyl)-furan-2-yl]-6,6-dimethyl-8-oxo-4,5,6,7,8,9-hexahydro-2H-pyrrolo[3,4-b]quinoline-3-carboxylic acid ethyl ester]",31,–
"CCOC(=O)c1[nH]cc2c1NC1=C(C(=O)CCC1)C2c1ccc(Sc2nc3cc(F)c(F)cc3[nH]2)o1 (stereo not shown) [Example 114, 9-[5-(5,6-Difluoro-1H-benzimidazol-2-ylsulfanyl)-furan-2-yl]-8-oxo-4,5,6,7,8,9-hexahydro-2H-pyrrolo[3,4-b]quinoline-3-carboxylic acid ethyl ester]",6,–
"CCOC(=O)c1[nH]cc2c1NC1=C(C(=O)CCC1)C2c1ccc(Sc2nc3ccc(F)c(F)c3[nH]2)o1 (stereo not shown) [Example 121, 9-[5-(6,7-Difluoro-1H-benzimidazol-2-ylsulfanyl)-furan-2-yl]-8-oxo-4,5,6,7,8,9-hexahydro-2H-pyrrolo[3,4-b]quinoline-3-carboxylic acid ethyl ester]",7,–
"CCOC(=O)c1[nH]cc2c1NC1=C(C(=O)CCC1)C2c1ccc(Sc2nc3c(F)c(F)c(F)cc3[nH]2)o1 (stereo not shown) [Example 122, 8-Oxo-9-[5-(4,5,6-trifluoro-1H-benzimidazol-2-ylsulfanyl)-furan-2-yl]-4,5,6,7,8,9-hexahydro-2H-pyrrolo[3,4-b]quinoline-3-carboxylic acid ethyl ester]",7,–
"CCOC(=O)c1[nH]cc2c1NC1=C(C(=O)CCC1)C2c1ccc(Sc2nc3cc(Cl)ccc3[nH]2)o1 (stereo not shown) [Example 129, 9-[5-(5-Chloro-1H-benzimidazol-2-ylsulfanyl)-furan-2-yl]-8-oxo-4,5,6,7,8,9-hexahydro-2H-pyrrolo[3,4-b]quinoline-3-carboxylic acid ethyl ester]",10,–
"CCOC(=O)c1[nH]cc2c1NC1=C(C(=O)CCC1)C2c1ccc(Sc2nc3c(F)cc(F)cc3[nH]2)o1 (stereo not shown) [Example 142, 9-[5-(4,6-Difluoro-1H-benzimidazol-2-ylsulfanyl)-furan-2-yl]-8-oxo-4,5,6,7,8,9-hexahydro-2H-pyrrolo[3,4-b]quinoline-3-carboxylic acid ethyl ester]",3,–
"CCOC(=O)c1[nH]cc2c1NC1=C(C(=O)CCC1)C2c1ccc(Sc2nc3cc(F)ccc3[nH]2)o1 (stereo not shown) [Example 148, 9-[5-(5-Fluoro-1H-benzimidazol-2-ylsulfanyl)-furan-2-yl]-8-oxo-4,5,6,7,8,9-hexahydro-2H-pyrrolo[3,4-b]quinoline-3-carboxylic acid ethyl ester]",11,–
